For 18 compounds, EC50 results are on record in US20250100968A1, “BICYCLIC-HETEROCYCLE DERIVATIVES AND RELATED USES” (CENTESSA PHARMACEUTICALS (UK) LIMITED, priority 2022, published 2025).
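Also: agonist activity in CHO cells stably expressing hOX2R, intracellular Ca2+ via Calcium 5 dye fluorescence area over 2 min, buffer-only as 0% and 10 nM orexin A as 100%.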

The assay deals with T1, human orexin type 2 receptor (hOX2R) (Homo sapiens, UniProt O43614).
T1 sequence (O43614 1-444): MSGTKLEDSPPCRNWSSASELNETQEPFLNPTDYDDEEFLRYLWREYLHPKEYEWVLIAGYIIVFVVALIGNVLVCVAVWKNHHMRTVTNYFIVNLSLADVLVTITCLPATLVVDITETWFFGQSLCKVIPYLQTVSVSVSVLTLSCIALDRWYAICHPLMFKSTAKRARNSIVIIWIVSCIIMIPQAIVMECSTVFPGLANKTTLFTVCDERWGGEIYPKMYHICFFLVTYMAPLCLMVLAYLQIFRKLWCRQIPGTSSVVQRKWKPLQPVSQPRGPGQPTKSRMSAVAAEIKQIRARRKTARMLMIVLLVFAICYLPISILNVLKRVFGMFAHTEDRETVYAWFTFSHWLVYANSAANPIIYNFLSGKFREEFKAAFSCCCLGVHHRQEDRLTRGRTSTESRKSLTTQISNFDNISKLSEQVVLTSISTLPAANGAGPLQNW
Nature of the assay: cell-based.
A word on the EC50: it is the concentration that produces a half-maximal response. Regarding `C[C@H](C#N)C(=O)N1CC2(CC2)[C@H](NS(=O)(=O)C(F)F)[C@@H]1Cc1cccc(-c2cc(F)cc(F)c2)c1F` [compound 49, N-((6S,7S)-5-((R)-2-cyanopropanoyl)-6-((2,3′,5′-trifluoro-[1,1′-biphenyl]-3-yl)methyl)-5-azaspiro[2.4]heptan-7-yl)-1,1-difluoromethanesulfonamide], the EC50 was in the range of 1 to 10 nM.
Then `O=C([C@H]1CCCO1)N1CC2(CC2)[C@H](NS(=O)(=O)C(F)F)[C@@H]1Cc1cccc(-c2cc(F)cc(F)c2)c1F` [compound 50, 1,1-difluoro-N-((6S,7S)-5-((R)-tetrahydrofuran-2-carbonyl)-6-((2,3′,5′-trifluoro-[1,1′-biphenyl]-3-yl)methyl)-5-azaspiro[2.4]heptan-7-yl)methanesulfonamide], with 1 to 10 nM; and `C[C@](O)(C(=O)N1CC2(CC2)[C@H](NS(=O)(=O)CF)[C@@H]1Cc1cccc(-c2cccc(F)c2)c1F)C(F)F` [compound 6, N-((6S,7S)-5-((S)-3,3-difluoro-2-hydroxy-2-methylpropanoyl)-6-((2,3′-difluoro-[1,1′-biphenyl]-3-yl)methyl)-5-azaspiro[2.4]heptan-7-yl)-1-fluoromethanesulfonamide], with 0.0631 to 1 nM; and `C[C@@](O)(CF)C(=O)N1CC2(CC2)[C@H](NS(=O)(=O)C(F)F)[C@@H]1Cc1cccc(-c2cc(F)cc(F)c2)c1F` [compound 1, 1,1-difluoro-N-((6S,7S)-5-((S)-3-fluoro-2-hydroxy-2-methylpropanoyl)-6-((2,3′,5′-trifluoro-[1,1′-biphenyl]-3-yl)methyl)-5-azaspiro[2.4]heptan-7-yl)methanesulfonamide], with 1 to 10 nM.
With `N#C[C@]1(C(=O)N2CC3(CC3)[C@H](NS(=O)(=O)CF)[C@@H]2Cc2cccc(-c3cccc(F)c3)c2F)CCO1` [compound 46, N-((6S,7S)-5-((S)-2-cyanooxetane-2-carbonyl)-6-((2,3′-difluoro-[1,1′-biphenyl]-3-yl)methyl)-5-azaspiro[2.4]heptan-7-yl)-1-fluoromethanesulfonamide], the half-maximal effective concentration (EC50) was in the range of 1 to 10 nM.
In turn, `N#CC1(C(=O)N2CC3(CC3)[C@H](NS(=O)(=O)CF)[C@@H]2Cc2cc(F)cc(-c3ccccc3)c2F)CC1` [compound 76, N-((6S,7S)-5-(1-cyanocyclopropane-1-carbonyl)-6-((2,5-difluoro-[1,1′-biphenyl]-3-yl)methyl)-5-azaspiro[2.4]heptan-7-yl)-1-fluoromethanesulfonamide] returned a concentration for a half-maximal effect (EC50) of 0.0631 to 1 nM.
As for `CC(C)(F)CNC(=O)N1CC2(CC2)[C@H](NS(=O)(=O)CF)[C@@H]1Cc1cc(F)cc(-c2ccccc2)c1F` [compound 51, (6S,7S)-6-((2,5-difluoro-[1,1′-biphenyl]-3-yl)methyl)-N-(2-fluoro-2-methylpropyl)-7-((fluoromethyl)sulfonamido)-5-azaspiro[2.4]heptane-5-carboxamide], the figure is 0.0631 to 1 nM; as for `C[C@@](O)(C(=O)N1CC2(CC2)[C@H](NS(=O)(=O)CF)[C@@H]1Cc1cccc(-c2ccccc2)c1F)C1CC1` [compound 2, N-((6S,7S)-5-((S)-2-cyclopropyl-2-hydroxypropanoyl)-6-((2-fluoro-[1,1′-biphenyl]-3-yl)methyl)-5-azaspiro[2.4]heptan-7-yl)-1-fluoromethanesulfonamide], 10 to 100 nM; as for `CO[C@@H](C)C(=O)N1CC2(CC2)[C@H](NS(=O)(=O)C(F)F)[C@@H]1Cc1cccc(-c2cc(F)cc(F)c2)c1F` [compound 65, 1,1-difluoro-N-((6S,7S)-5-((S)-2-methoxypropanoyl)-6-((2,3′,5′-trifluoro-[1,1′-biphenyl]-3-yl)methyl)-5-azaspiro[2.4]heptan-7-yl)methanesulfonamide], 1 to 10 nM.
`C[C@@H](F)S(=O)(=O)N[C@@H]1[C@H](Cc2cccc(-c3cc(F)cc(F)c3)c2F)N(C(=O)C2CCO2)CC12CC2` (mixture of isomers) [compound 43, (S)-1-fluoro-N-((6S,7S)-5-((RS)-oxetane-2-carbonyl)-6-((2,3′,5′-trifluoro-[1,1′-biphenyl]-3-yl)methyl)-5-azaspiro[2.4]heptan-7-yl)ethane-1-sulfonamide] showed a concentration for a half-maximal effect (EC50) of 1 to 10 nM.
The compound `CC(C)(F)CNC(=O)N1CC2(CC2)[C@H](NS(=O)(=O)CF)[C@@H]1Cc1cccc(-c2cc(F)cc(F)c2)c1F` [compound 37, (6S,7S)-N-(2-fluoro-2-methylpropyl)-7-((fluoromethyl)sulfonamido)-6-((2,3′,5′-trifluoro-[1,1′-biphenyl]-3-yl)methyl)-5-azaspiro[2.4]heptane-5-carboxamide] yielded an EC50 of 1 to 10 nM.
As for `CC(F)(F)CNC(=O)N1CC2(CC2)[C@H](NS(=O)(=O)CF)[C@@H]1Cc1cc(F)cc(-c2ccccc2)c1F` [compound 74, (6S,7S)-6-((2,5-difluoro-[1,1′-biphenyl]-3-yl)methyl)-N-(2,2-difluoropropyl)-7-((fluoromethyl)sulfonamido)-5-azaspiro[2.4]heptane-5-carboxamide], the EC50 lay within 1 to 10 nM.
Then `O=C([C@H](O)CF)N1CC2(CC2)[C@H](NS(=O)(=O)C(F)F)[C@@H]1Cc1cccc(-c2cc(F)cc(F)c2)c1F` [compound 8, 1,1-difluoro-N-((6S,7S)-5-((S)-3-fluoro-2-hydroxypropanoyl)-6-((2,3′,5′-trifluoro-[1,1′-biphenyl]-3-yl)methyl)-5-azaspiro[2.4]heptan-7-yl)methanesulfonamide], with 1 to 10 nM; and `C[C@H](F)S(=O)(=O)N[C@@H]1[C@H](Cc2cc(F)cc(-c3ccccc3)c2F)N(C(=O)[C@H]2CCO2)CC12CC2` [compound 56, (R)-N-((6S,7S)-6-((2,5-difluoro-[1,1′-biphenyl]-3-yl)methyl)-5-((R)-oxetane-2-carbonyl)-5-azaspiro[2.4]heptan-7-yl)-1-fluoroethane-1-sulfonamide], with 0.0631 to 1 nM; and `CC[C@@](C)(O)C(=O)N1CC2(CC2)[C@H](NS(=O)(=O)C(F)F)[C@@H]1Cc1cccc(-c2cc(F)cc(F)c2)c1F` [compound 77, 1,1-difluoro-N-((6S,7S)-5-((R)-2-hydroxy-2-methylbutanoyl)-6-((2,3′,5′-trifluoro-[1,1′-biphenyl]-3-yl)methyl)-5-azaspiro[2.4]heptan-7-yl)methanesulfonamide], with 0.0631 to 1 nM.
Consider `O=C(N1CC2(CC2)[C@H](NS(=O)(=O)CF)[C@@H]1Cc1cccc(-c2ccccc2)c1F)C1(CF)COC1` [compound 81, 1-fluoro-N-((6S,7S)-6-((2-fluoro-[1,1′-biphenyl]-3-yl)methyl)-5-(3-(fluoromethyl)oxetane-3-carbonyl)-5-azaspiro[2.4]heptan-7-yl)methanesulfonamide], for which the EC50 lay in the range of 1 to 10 nM.
Then `CO[C@H](C)C(=O)N1CC2(CC2)[C@H](NS(=O)(=O)CF)[C@@H]1Cc1cccc(-c2cc(F)cc(F)c2)c1F` [compound 68, 1-fluoro-N-((6S,7S)-5-((R)-2-methoxypropanoyl)-6-((2,3′,5′-trifluoro-[1,1′-biphenyl]-3-yl)methyl)-5-azaspiro[2.4]heptan-7-yl)methanesulfonamide], with 1 to 10 nM.
For `C[C@@](O)(CF)C(=O)N1CC2(CC2)[C@H](NS(=O)(=O)CF)[C@@H]1Cc1cc(F)cc(-c2ccccc2)c1F` [compound 72, N-((6S,7S)-6-((2,5-difluoro-[1,1′-biphenyl]-3-yl)methyl)-5-((S)-3-fluoro-2-hydroxy-2-methylpropanoyl)-5-azaspiro[2.4]heptan-7-yl)-1-fluoromethanesulfonamide], the EC50 is 0.0631 to 1 nM.
